Patent US5919464A, “Treatment of aberrant cellular states with biomodulators” (University of New Mexico, priority 1993, dated 1999)
“Also recorded” adds a separate entry of the source.

Assays:
solid tumor models = settings: in words; cited from earlier work
splenocytes = assay: effect of swainsonine on humoral immunity (PFC assay); assay type: in vivo, mouse
Protocol: The plaque forming cell (PFC) assay was done according to the method developed by Jerne and Nordin (1963). The splenocytes were washed in serum-free RPMI-1640 and brought to a final concentration of 1×10^6 cell/100 μl. Sheep red blood cells (sRBC), from The Colorado Serum Company, were labelled with protein A from Staphylococcus aureus (Sigma). The sRBC's were washed 3 times with saline (0.85% NaCl), the packed cells were then incubated with 1 ml of protein A (0.5 mg/ml saline) and 10 ml of saline containing 0.1 μl of CrCl3 (35% solution) (Aldrich), for 20 minutes. The sRBC's were then washed 3 times with PBS and suspended in PBS to make a 30% solution. The sRBC's (50 μl) and splenocytes (100μl) were combined with SeaPlaque agarose (FMC Corporation) and smeared on a 75 mm×50 mm microscope slide to form a lawn of target red blood cells with uniformly dispersed effector cells. Each sample was done in triplicate. The agarose was allowed to harden and the slides were placed in trays containing serum-free RPMI-1640. The trays were incubated at 37° C. in a CO2 incubator for 90 min. After incubation the slides were placed in slide holders containing normal saline for a wash step. The rabbit/anti-mouse antibody (DAKO Corporation) was diluted 1:400 with serum free RPMI-1640 and added to the slide trays. Following another 90 min. incubation at 37° C. in a CO2 incubator, the slides were again washed. Fresh frozen guinea pig complement (GIBCO) (2%) in serum-free RPMI-1640 was added to the slide trays and incubated for another 60 to 90 min. depending on the time necessary for plaque formation. The number of plaques were counted and the results reported as number of plaque forming cells per 1×10^6 splenocytes.
Mice were pretreated for 3 weeks with Sw (0.1 μg and 0.01 μg), and then received B16 cells. At 3 time points post tumor cell injection (day 0, 7 and 14), the mice were sacrificed and the spleens were removed. The cells were then used to determine the effect of Sw on humoral immunity. […] The presence of a day 7 tumor caused a return to baseline for all the groups. […]

B16 melanoma cells = assay: effect of swainsonine on cytotoxic T-lymphocytes (51Cr cytotoxicity assay); assay type: in vivo, mouse
Protocol: The cytotoxicity assay used two targets: YAC-1, for natural killer cell targets and B16 melanoma cells, for cytolytic T-cell targets. The YAC-1 cells were labelled in GKN (glucose/KCl/NaCl) with ^51 Cr (NEN-DuPont,400-1200 Ci/g activity) for 60 min. The B16's were ^51 Cr labelled in complete α-MEM media for 60 min. Both targets were washed twice through whole fetal calf serum to remove damaged and dead cells and then suspended in complete RPMI at a final concentration of 1×10^5 cells/ml. The spleen cells (effector cells) were plated in round bottom 96 well trays starting at 1×10^7 cells/ml (100μl/well), using a halving dilution that provided splenocyte concentrations of 10^6, 5×10^5, 2.5×10^5, 1.25×10^5, 6.25×10^4 and 3.125×10^4, all done in triplicate. The target cells were added at 1×10^4 cell/100 μl/well; this gave an effector:target cell ratio ranging from 100:1 to 3:1. Controls included spontaneous ^51 Cr release and 100% lysis (10% triton treatment). The trays were centrifuged at 50×g for 5 min. and incubated in a CO2 incubator at 37° C. for 16 hours. The trays were spun again at 50×g for 5 minutes and 100 μl removed from each well for counting. A Packard gamma counter (United Technologies) was used for counting. Each sample was counted for 1 min. giving a 5% counting efficiency. The following equation was used to determine percent lysis. [formula]
The effector:target ratios were then plotted against percent lysis and a simple line equation was determined for each treatment group. The slope of this line was then used to determine the total effector kill efficiency.
The ^51 Cr cytotoxicity assay was also run with the B16 melanoma cells as the target and the splenocytes from the same mice as above as the effector cells. The baseline mice (no tumor/no Sw) and the control mice (tumor/no Sw) had very similar line shapes and slopes. There were significant differences (p=0.03) between the presence and absence of tumor (see Table in FIG. 68).

antibody formation = settings: in words, cited from earlier work
canine glioma (CG) cells = assay: NMR T-2* linewidth of canine glioma cells; assay type: cell-based
Excerpt: These measurements correlate with the status of the cell surface oligosaccharide display. When the GFE decreases, as in cellular senescence, the linewidth measurements decrease, indicating an increased frequency of motion of unfrozen water on the surface. […] Additional data which supports this phenomenological connection between linewidth changes and the functional surface organization include; t-butanol extraction results in uniform decreases in the linewidth; biomodulator treatment of PDL-35 IMR-90s prevents the linewidth changes observed with the senescent populations; and the correlation between the cell surface organization changes and the linewidth data. […] The cells used for all these experiments are between passage 30 and passage 75.
In the growth transformed population we use the term unregulated to distinguish the models. In this case the linewidth for the CG controls are much higher than the IMR-90 values and the re-regulation results in a lowering of these values, approaching the data for the IMR-90s.
The cell surface oligosaccharide display was assessed by methods developed previously. In brief, cells from a sub-culturing were aliquotted into 96 well trays at 5×10^5 cells per ml, 100 μL aliquots. After 16 hours of culture the cells were washed, fixed, and blocked with 0.1% BSA/PBS. Optimal lectin concentrations (5 μg/ml)were used to give 80 to 90% saturation of the available sites. Three carbohydrate ligands at 10 μg concentrations in triplicate or quadruplicate were then used to prepare competition curves for the lectin binding. The Bound over Free (B/F) ratio was calculated and the Ligand microprocessor program was used to determine the optimal fit of the data to a polynomial generated model. The Gibb's Free Energy (GFE) was calculated from the Scatchard data on the competition assay by the following equation: GFE=-RT ln Kequil. The proton NMR linewidth measurements were conducted as described previously.

α-mannosidase II = settings: in words; cited from earlier work
IL-2R; LAK = settings: in words, cited from earlier work

In the case of `O[C@H]1[C@H]2[C@H](O)CCCN2C[C@H]1O` [Swainsonine, swainsonine], the “growth of other solid tumors” value (solid tumor models) is listed as “delay growth in several other solid tumor models”, the “increase in plaque forming cells (PFC)” value (splenocytes; 0.01 μg Sw 3 weeks over mice not receiving Sw, p=0.001) is listed as 89% and the “PFC versus control group” value (splenocytes; 0.1 μg Sw without tumor, in words) is listed as “not as significantly different from the control group (p=0.04)”. For the same compound, the PFC versus controls (splenocytes; 0.1 μg Sw, day 14, in words) was “not a significant difference between the controls and these treated mice (p=0.13)”, the “increase in line slope (kill efficiency)” value (B16 melanoma cells; 0.1 μg Sw alone) was 104% and the “CTL activity before exposure to specific target” value (B16 melanoma cells; 0.1 μg Sw for 3 weeks, in words) was “significant increase in the CTL activity”. For the same compound, the “convertability from NK to CTL” value (B16 melanoma cells; 0.1 μg Sw with tumors, tumor control 17.5%) was 39%, the “antibody production after immunosuppressive factor” value (antibody formation; Sw 3.7-100 mg/kg i.p. 5 days) was “return to normal levels of antibody production” and the “PFC numbers, Sw alone” value (antibody formation) was “no changes in PFC numbers”. For the same compound, the “T-2* linewidth” value (canine glioma (CG) cells; 233 K, four weeks of treatment, mean ± SD) was 300 ± 8, the “linewidth change versus controls” value (canine glioma (CG) cells; after one treatment / one week, in words, listed as Sw) was “significant (P>0.01]) decreases in linewidth; also recorded: significantly (P>0.01) different from those of the untreated controls” and the “linewidth after treatment withdrawal versus control” value (canine glioma (CG) cells; four weeks treatment, one week withdrawal, in words) was “still significantly different from control values”. The “α-mannosidase II” value (α-mannosidase II) was “inhibition of α-mannosidase II”, the “lymphoid IL-2R expression and IL-2 induced proliferation” value (IL-2R; LAK; following mitogenic stimulation) was “augmented lymphoid IL-2R expression and IL-2 induced proliferation” and the LAK induction (IL-2R; LAK; normally sub-optimal stimulation doses) was “augmented the LAK induction”.
